Experiment [1] deals with female rat sexual proceptivity (NMB-inhibited). The experiment in a line: Inhibition of female rat proceptivity by i.c.v. NMB and its antagonism. The experiment is classed as in vivo. The conditions noted are these: progesterone 0.5 mg s.c. 4 h; NMB 100 ng i.c.v. 10 min before test in progesterone-treated rats; Compound (1) 15 mg/kg i.p. 1 h before NMB (FIG. 5). As to the method: Ovariectomised female rats (Sprague Dawley, obtained from Charles River, UK) were stereotaxically implanted (coordinates 0.89 mm behind Bregma, 1.3 mm lateral and 2.5 mm vertical) with stainless steel cannulae (6 mm long, O.D. 0.75 mm), held in place with dental cement. Animals were housed in groups of three and returned to a reversed lighting system of 12 h light:dark (lights off 5.00-17.00 h). Correct placement of the cannulae was assessed post-mortem. Rats were used for tests two weeks after ovariectomy (one week after cannulation). The experiments started at least 5 h into the dark period. Forty eight hours before tests, the animals were primed with 5 μg oestradiol benzoate (OB) (s.c, in corn oil) and adapted to the apparatus (in the absence of stimuli animals) for 10 min on 2 consecutive days prior testing. The 10 min test was carried out as previously described. The difference in the percentage of time spent investigating male minus female was calculated, out of the total time spent investigating stimuli.
Progesterone (Prog, 0.5 mg/0.1 ml) was dissolved in corn oil and administered subcutaneously (s.c.), 4 h before test, to induce proceptive behaviour. Compound (1) (15 mg/kg, i.p.) was dissolved in 50% 2-hydroxypropyl-β-cyclodextrin in saline and administered 1 h before the i.c.v. administration. Neuromedin B was obtained from Bachem, UK. It was dissolved in isotonic saline and administered i.c.v. over a 30 sec period, with the aid of a pump set to deliver a flow of 10 μl/min, 10 min before tests. The dosing volume was 5 μl/rat. Each rat received a total amount of 100 ng.

The nature of experiment [2]: Plasma sexual hormone levels in ovariectomised female rats (radioimmunoassay). In kind it is in vivo, rat. As to the method: Ovariectomised adult female Sprague Dawley rats (180-200 g) were housed in groups of 6 in a reversed lighting system of 12 h light:dark (lights off 7.00-19.00 h). They were used for the experiments at least two weeks after ovariectomy. Forty eight hours before tests, the animals were primed with oestradiol benzoate (5 μg/0.1 ml in corn oil, s.c.). Progesterone (0.5 mg/0.1 ml, in corn oil, s.c.) was administered 4 h before blood collection, as a positive control. Compound (1) (3-10 mg/kg, i.p.) was administered in 50% 2-hydroxypropyl-β-cyclodextrin, 1 h prior to blood collection. Blood was collected from the trunk, after decapitation. It was immediately centrifuged (3500 r.p.m., 4° C., 5 min) and the plasmas frozen until assayed for hormonal content, using commercially available radioimmunoassay kits (^125I-labelled hormones) for oestradiol, progesterone, LH, FSH and prolactin.

Experiment [3] has as its system sexual behaviour of normal male rats. The experiment in a line: Sexual behaviour of normal (sexually vigorous) male rats. The experiment is classed as in vivo, rat. Particulars: Compound (1) 15 mg/kg or Fluoxetine 20 mg/kg i.p. 1 h before test. How it is done: The potentially stimulatory effect of Compound (1) on male sexual behaviour has been tested on sexually vigorous rats. Sprague Dawley male rats (Charles River, UK) were kept, 4 rats per cage, in a reversed lighting regime (12:12 hours, lights off at 5.00 h), with free access to food and water. The rats were pre-selected by being presented with a receptive female at 4 days intervals, i.e. every third day (having 2 clear days between presentations) until completing 6-7 […] of baseline determination. The animals showing consistently vigorous behaviour (ejaculatory latencies <300s) were chosen for further experiments (n—24). Animals were randomised into three groups. All animals received all three treatments following a latin-square design. Treatments were administered once a week, with a baseline test in between treatments (4 days intervals between baseline and test day). Treatments were Compound (1) (15 mg/kg, dissolved in 50% 2-hydroxypropyl-β-cyclodextrin in saline), vehicle, or Fluoxetine (20 mg/kg dissolved in 100% DMSO). All treatments were administered i.p. in a 1 ml/kg volume, 1 h before tests.
For all the sexual behaviour tests, the males were placed in an observation arena (50-60 cm diameter), starting 5 hours into the dark cycle and observed under red illumination. Three to 4 minutes after placing the male in the arena, a receptive female (ovariectomised, bearing a 7 mm Silastic implant of oestradiol benzoate) was introduced to the arena and the following parameters noted: Mount Latency: time (in seconds) taken between introduction of female and first mount. A maximum time of 15 minutes (900 seconds) was allowed, and the test terminated if no mounts were recorded within that time (FIG. 11), Intromission Latency: time (in seconds) taken between introduction of female and first intromission (FIG. 12), Number of Mounts: to reach ejaculation. When ejaculation was not reached, the number of mounts was not analyzed, Number of Intromissions: to reach ejaculation. When ejaculation was not reached, the number of intromissions was not analyzed (FIG. 13 is number of mounts+intromissions), Ejaculation Latency: time (in seconds) taken from first intromission to ejaculation. A maximum time of 30 minutes (1800 seconds) was given, and the test terminated if ejaculation was not achieved in that time (FIG. 14), and Refractory Period: time (in seconds) taken from ejaculation to the first mount of the next series of sexual activity. In those animals reaching ejaculation the test was terminated at the end of the refractory period, as indicated by the first mount of the next sexual cycle (FIG. 15).
A one-way ANOVA followed by Dunnett's t test was used to compare treated vs vehicle groups each day of testing, for all the sexual behaviour parameters. (*P<0.05, **P<0.01; n=15-16).

For the compound `COc1ccc(C2(CNC(=O)[C@](C)(Cc3c[nH]c4ccccc34)NC(=O)Nc3ccc([N+](=O)[O-])cc3)CCCCC2)nc1` [Compound (1), (S) 3-(1H-Indol-3-yl)-N-[1-(5-methoxy-pyridin-2-yl)-cyclohexyl-methyl]-2-methyl-2-[3-(4-nitro-phenyl)-ureido]-propionamide], the “proceptivity (percentage of time investigating male minus female stimulus)” value in experiment [1] was “prevented the inhibitory effect of NMB”. The “plasma levels of progesterone” value in experiment [2] (Compound (1) 3-10 mg/kg i.p. 1 h, progesterone 0.5 mg s.c. 4 h before blood collection, vs vehicle (FIG. 6)) was “no effect”. Besides, the “plasma levels of LH” value in experiment [2] (Compound (1) 3-10 mg/kg i.p. 1 h, progesterone 0.5 mg s.c. 4 h before blood collection, vs vehicle (FIG. 9)) is on record as “no effect”. In addition, in experiment [2] (Compound (1) 3-10 mg/kg i.p. 1 h before blood collection (FIG. 7)), the “plasma levels of oestradiol” value is “no effect”. Further, the “plasma levels of prolactin” value in experiment [2] (Compound (1) 3-10 mg/kg i.p. 1 h before blood collection (FIG. 8)) is “no effect”. In experiment [2] (Compound (1) 3-10 mg/kg i.p. 1 h before blood collection (FIG. 10)), the “plasma levels of FSH” value is “no effect”. In experiment [3] (vs vehicle (FIG. 11)), the “Mount Latency” value is on record as “no effect on any of the parameters studied”. Besides, in experiment [3] (vs vehicle (FIG. 12)), the “Intromission Latency” value is reported as “no effect on any of the parameters studied”. Besides, in experiment [3] (vs vehicle (FIG. 13)), the “number of mounts and intromissions required to achieve ejaculation” value was “no effect on any of the parameters studied”. The “Ejaculation Latency” value in experiment [3] (vs vehicle (FIG. 14)) is “no effect on any of the parameters studied”. In experiment [3] (vs vehicle (FIG. 15)), the “Refractory Period” value is recorded as “no effect on any of the parameters studied”.

(Values after patent US20020169101A1, “Treatment of sexual dysfunction” (priority 1999, published 2002).)
